Measured values taken from patent publication US20190183910A1, “ENHANCING DNA REPAIR AND PREVENTING AGING AND ITS CONSEQUENCES IN REPRODUCTIVE AND OTHER CELLS” (NEW YORK MEDICAL COLLEGE, priority 2016, published 2019).

Experiments:
mouse sperm [1] = experiment: Apoptosis by FLICA (activated caspases) in mouse sperm; type: cell-based; conditions: as a result of S1P treatment
Experimental: (§1) Treatment was performed with genotoxic stress (1 mM H2O2), S1P (200 μM), and S1P with genotoxic stress and control in culture for one hour. Also, the use of an ATM inhibitor was utilized (10 μM) (KU-55593, Abcam) (Li et al., 2014). We assessed DNA damage, apoptosis, and chromatin integrity. We also studied the DNA DSB repair gene expression by qRT-PCR in sperm lysates.
Levels of activated caspases were detected in mouse sperm samples using fluorescein-labelled inhibitors of caspases (FLICA). This cell-permeable and non-cytotoxic caspase inhibitor binds covalently to active caspases. The fluorogenic substrate becomes fluorescent on cleavage by the caspases. The inhibitors were used with the appropriate controls according to the kit instructions provided by the manufacturer (ImmunoChemistry Technologies). A 150-fold stock solution of the inhibitor was prepared in dimethylsulphoxide (DMSO). It was further diluted in phosphate-buffered saline (PBS) to yield a 30-fold working solution. Sperm samples (300 μl) were incubated at 37° C. for 1 hr with 10 μl of the working solution and subsequently washed twice with PBS. After labeling with FLICA, 1% propidium iodide (PI) in PBS was used to assess dead cells. All samples were analyzed directly by flow cytometry to detect caspase activity (Bedner et al., 2000; Darzynkiewicz et al., 2011).

mouse sperm [2] = experiment: Susceptibility of DNA to denaturation by AO staining in mouse sperm; type: cell-based; conditions: as a result of S1P treatment
Experimental: as §1
DNA integrity of mouse sperm were assessed via flow cytometry using acridine orange (AO) staining (Hawley and Hawley, 2004). AO fluoresces green when attached to native DNA, and fluoresces red when attached to fragmented DNA. Basically, after induction of denaturation by heat or acid the denatured DNA (ssDNA) stains metachromatically red with AO while dsDNA stains green. When the sample has ≥50% green fluorescence, the sample is of good quality. Similarly, AO was used to assess sperm chromatin structure by measuring its intensity of fluorescence, which is the ratio of red/(red+green) yields the percentage of DNA fragmentation (also known as DNA fragmentation index, or DFI %).

DMC1 = experiment: qRT-PCR DNA DSB repair gene expression in mouse sperm lysates, DMC1; type: cell-based
Experimental: as §1
Sperm pellets previously snap-frozen in PBS were thawed. RNA was extracted using the trizol method (Rio et al., 2010). The quality and quantity of the RNA were measured with NanoDrop 2000 from Thermo Scientific. RNA (2 μg) from each sample was taken for reverse transcription with dTVN and N9 primers and SuperScript III reverse transcriptase, all procured from Invitrogen. The resulting cDNA was used to perform real-time qPCR with SYBR Green on an Applied Biosystems 7900HT Real-Time PCR machine was used. To determine the relative expression of various DNA repair genes in mouse sperm, we used the ΔΔCt method, which makes use of the expression of housekeeping genes. GAPDH was used as housekeeping gene. Primers were procured from Integrated DNA technologies (IDT) (Table 3).

mouse sperm [3] = experiment: Alkaline comet assay on mouse sperm; type: cell-based; conditions: for percent tail DNA, alkaline comet: mouse sperm, n=9, mean±SEM
Experimental: as §1
Slides were prepared 48 hours prior to experimentation by coating normal glass microscope slides with 500 μl normal melting point agar (0.5% w/v in PBS) solution and left to dry at room temperature for no less than 48 hours. Then, 10 μl of mouse sperm suspension was mixed with 90 μl of 0.5% LMPA. Then this 100 μl solution was added to the NMPA-coated slides. Coverslips were added and slides were placed on a metallic tray on ice and in the dark for 5 minutes. The cover slips were removed and a 90 μl layer of LMPA was added. Cover slips were subsequently replaced before the LMPA hardened. Slides were then kept in the dark on ice again for another 5 minutes. After ten minutes, the cover slips were removed and slides were placed in staining jars containing ice cold lysing solution (2.5 M NaCl, 200 mM NaOH, 100 mM EDTA, 10 mM Trizma Base, 1% Triton X-100 and 10% DMSO [pH 10]) for 1.5 hours at 4° C. in a dark place.
After this lysis step, the slides were washed three times for 5 minutes with TE buffer (pH 8.0), and then placed flatly in the electrophoresis tank face up for 30 minutes to achieve the unwinding of the DNA. The alkaline electrophoresis buffer in this tank included 300 mM NaOH and 1 mM EDTA [pH13]. This incubation period was used to achieve the alkaline unwinding of the DNA. Electrophoresis was then performed at 25 V, 300 mA for 30 minutes. After this, slides were washed twice in neutralization buffer (0.4 M Tris, pH 7.5) for 5 minutes each. Before analysis could occur, the sperm within the slides needed to be fixed by draining the slides well on paper towels and then subjecting them to two 10 minute washes in ethanol, and then air drying at room temperature for 5 minutes. Ethidium bromide (50 μl at 10 μg/ml in water) was then added on the slide, and sealed with a cover slip. Slides were kept moist, wrapped in aluminum foil to prevent light exposure, and stored at 4° C. until analysis (Williams et al., 2014).
Slides from both alkaline and neutral comets were imaged by fluorescence microscopy using a Nikon OPTIPHOT microscope. ImageJ was used for comet assay analysis, which calculated tail length, tail moment, and % of DNA in the tail. […] To analyze the slides, an oval around the sperm head was drawn and calculated and then an oval around the sperm tail was drawn and calculated. […] It was calculated as the Pythagorean distance between two points. […]

human sperm = experiment: Neutral comet assay on human sperm; type: cell-based
male germ cells = conditions: S1P treatment to mouse testes (Otala et al., 2004); cited from earlier work
oocytes = conditions: ex vivo (Morita et al., 2000; Tilly and Kolesnick, 2007); cited from earlier work

SMILES: CCCCCCCCCCCCC/C=C/[C@@H](O)[C@@H](N)COP(=O)(O)O [S1P, sphingosine 1 phosphate]
- percentage of apoptosis by FLICA (mouse sperm [1]): no significant difference
- susceptibility of DNA to denaturation by AO staining (mouse sperm [2]): no significant difference
- DMC1 expression (qRT-PCR) (DMC1; S1P alone, with ATM inhibitor, n=8, mean±SEM): 0.027±0.014
- DMC1 expression (qRT-PCR) (DMC1; S1P in the presence of genotoxic stress, n=9, mean±SEM): 0.029±0.04
- DMC1 expression (qRT-PCR) (DMC1; S1P with genotoxic stress, with ATM inhibitor, n=8, mean±SEM): 0.0035±0.005
- DNA damage, alkaline comet (mouse sperm [3]; S1P-treated mouse sperm with ATM inhibitor): no significant difference
- percent tail DNA, alkaline comet (mouse sperm [3]; S1P alone, without ATM inhibitor): 16.79±0.89%
- percent tail DNA, alkaline comet (mouse sperm [3]; S1P with H2O2, without ATM inhibitor): 16.8±0.87%
- DNA damage, neutral comet (human sperm; S1P-treated human sperm with ATM inhibitor): no significant difference
- DNA damage, neutral comet (human sperm; S1P-treated human sperm without ATM inhibitor): no significant difference
- male germ cell loss by radiation-induced injury (male germ cells): decreased
- ceramide induced apoptosis in oocytes (oocytes): block ceramide induced apoptosis
